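Exposure lasted 48 hours, with cells grown in 96-well plates and compounds tested at five concentrations. GI50 marks 50% less growth.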 The source made the active and inactive calls. Rule as the data show it: active = GI50 up to about 1.1 µM and inactive = higher.

The values below come from ChEMBL document CHEMBL1201862, “PubChem BioAssay data set” (2004).

Test systems include OVCAR-5; HCC 2998; MCF7; IGROV-1; NCI-H522; DU-145; SK-OV-3; RPMI-8226; NCI-H23; BT-549; MDA-MB-435; MOLT-4; MDA-N; HCT-15; NCI-H460; HOP-92; OVCAR-8; TK-10; U-251; A549.
Assay in all cases: NCI tumour cell line growth inhibition, 48 h

As to `O=C1c2ccccc2-n2c1nc1cc(Cl)ccc1c2=O`, the GI50 with OVCAR-5 was > 100 µM (inactive); in the assay on HCC 2998 it was > 100 µM (inactive); with MCF7, > 100 µM (inactive); with IGROV-1, 33.3 µM (inactive); in the assay on NCI-H522 it was 29.9 µM (inactive); in the assay with DU-145 it was 24.1 µM (inactive). Moreover, the GI50 with SK-OV-3 is > 100 µM (inactive); with RPMI-8226, 5.04 µM (inactive); in the assay with NCI-H23, 11.8 µM (inactive); with BT-549 it was > 100 µM (inactive); in the assay with MDA-MB-435, 2.02 µM (inactive); in the assay on MOLT-4, 11.9 µM (inactive). In addition, the GI50 in the assay with MDA-N is 14.5 µM (inactive); in the assay with HCT-15, 21.2 µM; in the assay on NCI-H460 it was 30.3 µM (inactive); in the assay on HOP-92, 71.6 µM (inactive); in the assay with OVCAR-8, 36.8 µM (inactive); in the assay on TK-10 it was > 100 µM (inactive). Moreover, the results for the GI50 in the assay with U-251 and in the assay with A549 were 51.4 µM (inactive) and 66.8 µM (inactive), respectively.
On to `CCOc1cc(NC(C)=O)ccc1C(=O)NN1C(=O)CSC1c1ccccc1` (centres undefined), for which the GI50 in the assay with OVCAR-5 is > 100 µM (inactive); in the assay on HCC 2998, > 100 µM (inactive); with MCF7, 78.5 µM (inactive); with IGROV-1, > 100 µM (inactive); in the assay with NCI-H522 it was 43.2 µM (inactive); in the assay with DU-145, > 100 µM (inactive). In addition, the GI50 in the assay on SK-OV-3 is > 100 µM (inactive); in the assay with RPMI-8226, 26.1 µM (inactive); with NCI-H23 it was 66.7 µM (inactive); in the assay with BT-549, 34.9 µM (inactive); with MDA-MB-435 it was > 100 µM (inactive); with MOLT-4 it was < 0.01 µM (active). The GI50 with MDA-N was 84.9 µM (inactive); in the assay with HCT-15, 60.3 µM; with NCI-H460, > 100 µM (inactive); in the assay on HOP-92, 42.5 µM (inactive); with OVCAR-8, 48 µM (inactive); in the assay with TK-10, 48.8 µM (inactive). The GI50 in the assay with A549 was 77.3 µM (inactive).
`CC(=O)OCCn1c(Cc2ccc(Cl)cc2)nn(C(C)=O)c1=O`: the GI50 in the assay with OVCAR-5, with HCC 2998, with MCF7, with IGROV-1, in the assay with NCI-H522 and with DU-145 was > 100 µM (inactive) each time. The GI50 in the assay on SK-OV-3, with RPMI-8226, in the assay with NCI-H23, in the assay with BT-549, in the assay with MDA-MB-435 and in the assay on MOLT-4 was > 100 µM (inactive) each time. Also, the GI50 in the assay with MDA-N was > 100 µM (inactive); in the assay on HCT-15, over 100 µM; in the assay with NCI-H460 it was > 100 µM (inactive); with HOP-92, > 100 µM (inactive); with OVCAR-8, > 100 µM (inactive); in the assay on TK-10 it was > 100 µM (inactive). The GI50 with U-251 and in the assay on A549 was > 100 µM (inactive) throughout.
`CC1=NN(c2ccccc2Cl)C2(C1)C(Cl)C(=O)N2c1nc2ccccc2s1` (centres undefined): the GI50 was > 100 µM (inactive) with OVCAR-5; > 100 µM (inactive) in the assay with HCC 2998; 44.8 µM (inactive) in the assay on MCF7; 42.1 µM (inactive) with IGROV-1; 17.9 µM (inactive) with NCI-H522; 47.2 µM (inactive) in the assay with DU-145. In addition, the GI50 with SK-OV-3 was 24.7 µM (inactive); in the assay on RPMI-8226, 21.7 µM (inactive); in the assay on NCI-H23 it was 48.4 µM (inactive); in the assay with BT-549, 54.6 µM (inactive); in the assay on MDA-MB-435 it was 41.8 µM (inactive); in the assay on MOLT-4, 30 µM (inactive). The GI50 in the assay on MDA-N was 62.7 µM (inactive); in the assay on HCT-15, 44.3 µM; in the assay with NCI-H460, 79.6 µM (inactive); with HOP-92, 88.7 µM (inactive); in the assay with OVCAR-8, 38.1 µM (inactive); with TK-10, > 100 µM (inactive). For the same compound, the GI50 is 28.6 µM (inactive) in the assay with U-251 and 55.7 µM (inactive) in the assay with A549.
Take `COC(=O)c1cc(C)ccc1CC(Cc1ccc(C)cc1)C(=O)OC` (centres undefined): the GI50 in the assay on OVCAR-5 was 9.86 µM (inactive); in the assay on HCC 2998 it was 25.8 µM (inactive); in the assay on MCF7 it was 26.3 µM (inactive); in the assay on IGROV-1 it was 72.4 µM (inactive); in the assay with NCI-H522, 7.06 µM (inactive); with DU-145 it was > 33 µM (inactive). The GI50 with SK-OV-3 was 26.6 µM (inactive); in the assay on RPMI-8226, 5.77 µM (inactive); with NCI-H23, 9.4 µM (inactive); in the assay on BT-549 it was > 100 µM (inactive); in the assay with MDA-MB-435 it was 31 µM (inactive); in the assay on MOLT-4 it was 5.01 µM (inactive). Further, the GI50 with MDA-N is 40.6 µM (inactive); with HCT-15, 10.9 µM; in the assay with NCI-H460 it was 40.4 µM (inactive); in the assay on HOP-92, 8.95 µM (inactive); in the assay on OVCAR-8, > 66.8 µM (inactive); in the assay with TK-10 it was > 100 µM (inactive). Moreover, the values for the GI50 with U-251 and in the assay on A549 were 42.1 µM (inactive) and 12.9 µM (inactive), respectively.
Turning to `COC(=O)[C@@H]1[C@H]2CC[C@]3(C)[C@@H](OC(C)=O)CC[C@H]3[C@@H]2CC[C@H]1C(C)=O`, the GI50 with OVCAR-5, in the assay on HCC 2998, in the assay on MCF7, in the assay on IGROV-1, in the assay with NCI-H522 and in the assay with DU-145 was > 100 µM (inactive) each time. Moreover, the GI50 with SK-OV-3, in the assay with RPMI-8226, in the assay with NCI-H23, in the assay with BT-549, in the assay with MDA-MB-435 and in the assay with MOLT-4 was > 100 µM (inactive) each time. In addition, the GI50 in the assay on MDA-N is > 100 µM (inactive); with HCT-15, over 100 µM; in the assay with NCI-H460 it was > 100 µM (inactive); with HOP-92 it was > 100 µM (inactive); in the assay with OVCAR-8, > 100 µM (inactive); in the assay with TK-10 it was > 100 µM (inactive). For the same compound, the GI50 with U-251 and in the assay on A549 was > 100 µM (inactive) each time.
`C#Cc1cc(Br)c(OC(=O)C(C)(C)C)c(-c2cc(C#C)cc(Br)c2OC(=O)C(C)(C)C)c1`: the GI50 with OVCAR-5 is 21.2 µM (inactive); with HCC 2998, 24.4 µM (inactive); with MCF7, 26.7 µM (inactive); in the assay with IGROV-1 it was 76.9 µM (inactive); with NCI-H522, 32.5 µM (inactive); in the assay with DU-145 it was 62.4 µM (inactive). Also, the GI50 is > 100 µM (inactive) in the assay with SK-OV-3; 12.5 µM (inactive) with RPMI-8226; 30.5 µM (inactive) in the assay on NCI-H23; > 100 µM (inactive) in the assay with BT-549; 45.8 µM (inactive) in the assay with MDA-MB-435; 23 µM (inactive) in the assay with MOLT-4. The GI50 with MDA-N was 31.8 µM (inactive); in the assay on HCT-15, 32.6 µM; with NCI-H460, 42.5 µM (inactive); in the assay with HOP-92, 36.9 µM (inactive); in the assay on OVCAR-8 it was 65.3 µM (inactive); in the assay with TK-10 it was > 100 µM (inactive). Moreover, the results for the GI50 with U-251 and in the assay with A549 were 45.1 µM (inactive) and 31.8 µM (inactive), respectively.
Consider `CC1=C(C(=O)NC(C)(C)C)CC(C(=O)NC(C)(C)C)C(C)N1` (centres undefined), for which the GI50 in the assay with OVCAR-5, with HCC 2998, in the assay on MCF7, in the assay on IGROV-1, with NCI-H522 and in the assay on DU-145 was > 100 µM (inactive) each time. Besides, the GI50 with SK-OV-3 is > 100 µM (inactive); with RPMI-8226 it was > 100 µM (inactive); with NCI-H23, > 100 µM (inactive); in the assay with BT-549 it was > 100 µM (inactive); with MDA-MB-435 it was 93.8 µM (inactive); with MOLT-4 it was > 100 µM (inactive). Besides, the GI50 in the assay with MDA-N was > 100 µM (inactive); in the assay with HCT-15 it was over 100 µM; with NCI-H460, > 100 µM (inactive); in the assay on HOP-92 it was 71.1 µM (inactive); in the assay on OVCAR-8, > 100 µM (inactive); with TK-10 it was > 100 µM (inactive). Besides, the GI50 in the assay on U-251 and in the assay with A549 was > 100 µM (inactive) in each case.
As to `CCOC(=O)C(C)c1nc2cc(F)c(N3CCOCC3)cc2[nH]c1=O` (centres undefined), the GI50 with OVCAR-5, in the assay with HCC 2998, in the assay with MCF7, in the assay on IGROV-1, in the assay with NCI-H522 and in the assay on DU-145 was > 100 µM (inactive) each time. Further, the GI50 was > 100 µM (inactive) in the assay on SK-OV-3; 83.6 µM (inactive) in the assay on RPMI-8226; > 100 µM (inactive) with NCI-H23; > 100 µM (inactive) in the assay with BT-549; > 100 µM (inactive) in the assay on MDA-MB-435; 85.9 µM (inactive) in the assay on MOLT-4. Also, the GI50 was > 100 µM (inactive) in the assay with MDA-N; over 100 µM in the assay on HCT-15; 39.1 µM (inactive) in the assay with NCI-H460; > 100 µM (inactive) in the assay on HOP-92; > 100 µM (inactive) in the assay on OVCAR-8; > 100 µM (inactive) in the assay with TK-10. In addition, the GI50 in the assay on U-251 and in the assay with A549 was > 100 µM (inactive) in each case.
For `Nc1ccc(-c2nc3ccc(F)cc3s2)cc1I`, the GI50 in the assay with OVCAR-5 was 0.0515 µM (active); in the assay with HCC 2998, 0.121 µM (active); with MCF7 it was < 0.01 µM (active); in the assay with IGROV-1 it was < 0.01 µM (active); in the assay with NCI-H522 it was > 63.1 µM (inactive); in the assay on DU-145, > 100 µM (inactive). Further, the GI50 in the assay with SK-OV-3 was 97.3 µM (inactive); with RPMI-8226, > 100 µM (inactive); in the assay with NCI-H23 it was > 100 µM (inactive); with BT-549, > 100 µM (inactive); in the assay with MDA-MB-435 it was > 100 µM (inactive); in the assay with MOLT-4 it was 12.4 µM (inactive). Also, the GI50 in the assay with MDA-N was > 100 µM (inactive); in the assay with HCT-15 it was over 100 µM; with NCI-H460 it was > 100 µM (inactive); with HOP-92, 24.8 µM (inactive); with OVCAR-8, > 79.4 µM (inactive); in the assay on TK-10 it was < 0.01 µM (active). Besides, the GI50 is > 90.8 µM (inactive) in the assay on U-251 and > 100 µM (inactive) with A549.
